# Measured values from patent publication US20250230147A1, “LACTAMS AS CBL-B INHIBITORS” (Genentech, Inc., priority 2021, published 2025).
# Counter-ions that a name gives are not always drawn.
# Key:
# Cbl-b = Cbl-b (Homo sapiens (Human), UniProt Q13191); experiment: Cbl-b LCK Ub TR-FRET assay (Cbl-b Lck HTRF); assay type: biochemical
# In short: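 Biotin-Cbl-b preincubated with compound (10-point 3-fold series) 60 min, then His-LCK with 1 mM ATP (2× mixture) added for 90 min at room temperature. Ubiquitination detected by TR-FRET using HA-ubiquitin/UBE2D2 adduct, anti-HA-D2 and streptavidin-Eu; IC50 normalised to no-LCK and DMSO controls.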
# c-Cbl = c-Cbl (Homo sapiens (Human), UniProt P22681); experiment: C-Cbl LCK Ub TR-FRET assay (c-cbl Lck HTRF); assay type: biochemical; conditions: for (fold-selectivity): C-cbl Lck HTRF IC50 relative to Cbl-b Lck HTRF IC50
# Chain of c-Cbl (P22681 47-435): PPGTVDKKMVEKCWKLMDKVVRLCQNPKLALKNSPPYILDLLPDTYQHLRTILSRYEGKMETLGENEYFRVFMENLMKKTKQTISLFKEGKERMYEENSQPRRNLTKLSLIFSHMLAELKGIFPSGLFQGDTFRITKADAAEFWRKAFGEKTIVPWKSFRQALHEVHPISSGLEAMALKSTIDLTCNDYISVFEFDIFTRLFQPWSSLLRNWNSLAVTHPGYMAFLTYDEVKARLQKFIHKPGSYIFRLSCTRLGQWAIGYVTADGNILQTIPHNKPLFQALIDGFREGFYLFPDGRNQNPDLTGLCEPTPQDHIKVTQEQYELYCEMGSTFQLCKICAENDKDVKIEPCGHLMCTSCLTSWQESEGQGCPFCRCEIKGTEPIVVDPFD
# In short: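 Signal is read once the detection mix has stood 20 min at ambient temperature. Curves are anchored by DMSO as maximum and by omission of LCK as minimum.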
# Chain of Cbl-b (Q13191 40-426): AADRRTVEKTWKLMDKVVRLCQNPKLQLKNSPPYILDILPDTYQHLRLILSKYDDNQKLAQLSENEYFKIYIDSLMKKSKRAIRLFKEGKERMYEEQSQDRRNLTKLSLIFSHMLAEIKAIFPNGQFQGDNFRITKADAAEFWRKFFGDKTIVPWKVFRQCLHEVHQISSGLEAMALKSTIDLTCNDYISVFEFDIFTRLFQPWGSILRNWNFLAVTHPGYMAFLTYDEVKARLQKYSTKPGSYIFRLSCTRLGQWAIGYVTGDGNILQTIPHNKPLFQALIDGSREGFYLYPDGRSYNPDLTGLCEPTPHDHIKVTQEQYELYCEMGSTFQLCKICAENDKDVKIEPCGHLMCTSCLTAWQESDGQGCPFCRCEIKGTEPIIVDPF
IC50 (Cbl-b) [nM],IC50 (c-Cbl) [nM],(fold-selectivity) (c-Cbl),SMILES
12,9.3,(0.77x),"Cn1cnnc1CC1(c2cccc(N3Cc4c(cc(CNC5(C)CCC5)cc4C(F)F)C3=O)c2)CC(F)(F)C1 [Compound 250, 2-(3-(3,3-difluoro-1-((4-methyl-4H-1,2,4-triazol-3-yl)methyl)cyclo-butyl)phenyl)-4-(difluoromethyl)-6-(((1-methylcyclobutyl)amino)methyl)isoindolin-1-one]"
11,8.4,(0.76x),"CSc1cc(C2(Cc3nncn3C)CCC2)cc(N2Cc3c(cc(CNC4(C)CCC4)cc3C(F)(F)F)C2=O)n1 [Compound 251, 2-(4-(1-((4-methyl-4H-1,2,4-triazol-3-yl)methyl)cyclobutyl)-6-(methylthio)pyridin-2-yl)-6-(((1-methylcyclobutyl)amino)methyl)-4-(trifluoromethyl)isoindolin-1-one]"
1400,3400,(2.6x),"Cn1cnnc1C(F)(F)C1(c2cccc(N3Cc4c(cccc4C(F)(F)F)C3=O)c2)CC(F)(F)C1 [Compound 253, 2-(3-(1-(difluoro(4-methyl-4H-1,2,4-triazol-3-yl)methyl)-3,3-difluorocyclobutyl)phenyl)-4-(trifluoromethyl)isoindolin-1-one]"
2400,3200,(1.4x),"Cc1ncnn1CC1(c2cccc(N3Cc4c(cc(CN5CCN(C)C[C@@H]5C(C)C)cc4C(F)(F)F)C3=O)c2)COC1 [Compound 254, (S)-6-((2-isopropyl-4-methylpiperazin-1-yl)methyl)-2-(3-(3-((5-methyl-1H-1,2,4-triazol-1-yl)methyl)oxetan-3-yl)phenyl)-4-(trifluoromethyl)isoindolin-1-one]"
20000,≥ 20000,(1.0x),"Cc1ncn(CC2(c3cccc(N4Cc5c(cc(CN6CCN(C)C[C@@H]6C(C)C)cc5C(F)(F)F)C4=O)c3)COC2)n1 [Compound 255, (S)-6-((2-isopropyl-4-methylpiperazin-1-yl)methyl)-2-(3-(3-((3-methyl-1H-1,2,4-triazol-1-yl)methyl)oxetan-3-yl)phenyl)-4-(trifluoromethyl)isoindolin-1-one]"
15,13,(0.83x),"Cc1cnn(CC2(c3cccc(N4Cc5c(cc(CN6CCN(C)C[C@@H]6C(C)C)cc5C(F)(F)F)C4=O)c3)COC2)n1 [Compound 256, (S)-6-((2-isopropyl-4-methylpiperazin-1-yl)methyl)-2-(3-(3-((4-methyl-2H-1,2,3-triazol-2-yl)methyl)oxetan-3-yl)phenyl)-4-(trifluoromethyl)isoindolin-1-one]"
13000,20000,(1.6x),"Cc1cn(CC2(c3cccc(N4Cc5c(cc(CN6CCN(C)C[C@@H]6C(C)C)cc5C(F)(F)F)C4=O)c3)COC2)nn1 [Compound 257, (S)-6-((2-isopropyl-4-methylpiperazin-1-yl)methyl)-2-(3-(3-((4-methyl-1H-1,2,3-triazol-1-yl)methyl)oxetan-3-yl)phenyl)-4-(trifluoromethyl)isoindolin-1-one]"
22,31,(1.4x),"Cc1cnnn1CC1(c2cccc(N3Cc4c(cc(CN5CCN(C)C[C@@H]5C(C)C)cc4C(F)(F)F)C3=O)c2)COC1 [Compound 258, (S)-6-((2-isopropyl-4-methylpiperazin-1-yl)methyl)-2-(3-(3-((5-methyl-1H-1,2,3-triazol-1-yl)methyl)oxetan-3-yl)phenyl)-4-(trifluoromethyl)isoindolin-1-one]"
3100,3100,(1.0x),"CC(C)[C@H]1CN(C)CCN1Cc1cc2c(c(C(F)(F)F)c1)CN(c1cccc(C3([C@@H](F)c4nncn4-c4ccccc4)COC3)c1)C2=O [Compound 259, 2-(3-(3-((R)-fluoro(4-phenyl-4H-1,2,4-triazol-3-yl)methyl)oxetan-3-yl)phenyl)-6-(((S)-2-isopropyl-4-methylpiperazin-1-yl)methyl)-4-(trifluoromethyl)isoindolin-1-one]"
5600,8300,(1.5x),"CC(C)[C@H]1CN(C)CCN1Cc1cc2c(c(C(F)(F)F)c1)CN(c1cccc(C3([C@H](F)c4nncn4-c4ccccc4)COC3)c1)C2=O [Compound 260, 2-(3-(3-((S)-fluoro(4-phenyl-4H-1,2,4-triazol-3-yl)methyl)oxetan-3-yl)phenyl)-6-(((S)-2-isopropyl-4-methylpiperazin-1-yl)methyl)-4-(trifluoromethyl)isoindolin-1-one]"
45,59,(1.3x),"Cc1ccnn1CC1(c2cccc(N3Cc4c(cc(CN5CCN(C)C[C@@H]5C(C)C)cc4C(F)(F)F)C3=O)c2)COC1 [Compound 263, (S)-6-((2-isopropyl-4-methylpiperazin-1-yl)methyl)-2-(3-(3-((5-methyl-1H-pyrazol-1-yl)methyl)oxetan-3-yl)phenyl)-4-(trifluoromethyl)isoindolin-1-one]"
7100,11000,(1.5x),"Cc1ccn(CC2(c3cccc(N4Cc5c(cc(CN6CCN(C)C[C@@H]6C(C)C)cc5C(F)(F)F)C4=O)c3)COC2)n1 [Compound 264, (S)-6-((2-isopropyl-4-methylpiperazin-1-yl)methyl)-2-(3-(3-((3-methyl-1H-pyrazol-1-yl)methyl)oxetan-3-yl)phenyl)-4-(trifluoromethyl)isoindolin-1-one]"
880,1300,(1.4x),"Cn1cnnc1CC1(c2cc(C3CCC3)nc(N3Cc4c(cccc4C(F)(F)F)C3=O)c2)COC1 [Compound 265, 2-(6-cyclobutyl-4-(3-((4-methyl-4H-1,2,4-triazol-3-yl)methyl)oxetan-3-yl)pyridin-2-yl)-4-(trifluoromethyl)isoindolin-1-one]"
13,9.7,(0.76x),"CC(C)[C@H]1CN(C)CCN1Cc1cc2c(c(C(F)(F)F)c1)CN(c1cccc(C3(Cc4nncn4C(F)F)COC3)c1)C2=O [Compound 266, (S)-2-(3-(3-((4-(difluoromethyl)-4H-1,2,4-triazol-3-yl)methyl)-oxetan-3-yl)phenyl)-6-((2-isopropyl-4-methylpiperazin-1-yl)methyl)-4-(trifluoromethyl)-isoindolin-1-one]"
17,17,(1.0x),"CC(C)[C@H]1CN(C)CCN1Cc1cc2c(c(C(F)(F)F)c1)CN(c1cccc(C3([C@@H](F)c4nncn4C(F)F)COC3)c1)C2=O [Compound 267, 2-(3-(3-((R)-(4-(difluoromethyl)-4H-1,2,4-triazol-3-yl)fluoromethyl)oxetan-3-yl)phenyl)-6-(((S)-2-isopropyl-4-methylpiperazin-1-yl)methyl)-4-(trifluoromethyl)isoindolin-1-one]"

SMILES,IC50 (Cbl-b) [nM],IC50 (c-Cbl) [nM],(fold-selectivity) (c-Cbl)
"Cn1cnnc1CC1(c2cccc(N3Cc4c(Cl)cc(CNC5(C)CCC5)cc4C3=O)c2)CC(F)(F)C1 [Compound 252, 4-chloro-2-(3-(3,3-difluoro-1-((4-methyl-4H-1,2,4-triazol-3-yl)-methyl)cyclobutyl)phenyl)-6-(((1-methylcyclobutyl)amino)methyl)isoindolin-1-one formate]",13,11,–
